Biological target: T1, WIZ (Homo sapiens, UniProt O95785+Q96SW2)
T1 construct: expressed in transfected cells
Test: Quantification of WIZ protein levels in HiBit tag fusion protein assay (WIZ HiBit assay in 293T cells)
Type: cell-based
Conditions: for Dmax at 25 µM / remaining activity at 25 µM: HEK-293T; for Dmax at 25 µM / % degradation of WIZ (100-Amax): 100 minus Amax at 25 uM; for Dmax at 25 µM: read-out: % degradation of WIZ (100-Amax); for remaining activity at 25 µM / WIZ Amax: DMSO-normalized, curve-fitted percentage of WIZ-HiBit remaining at 25 uM; for remaining activity at 25 µM: read-out: WIZ Amax; for DC50: WIZ HiBit assay in 293T cells, 10-point, 5-fold dilution, highest concentration 25 μM, about 18 hours, read-out: WIZ AC50
Method: The HiBit system from Promega was used to develop high-throughput and quantitative assays to measure changes in WIZ protein levels in response to compounds. The HiBit tag was derived from a split Nanoluciferase and has the following protein sequence: […] (SEQ ID NO: 1). The complementary fragment of Nanoluciferase (known as LgBit, from Promega), was added to the HiBit tag to form an active Nanoluciferase enzyme whose activity can be precisely measured. In this way, the levels of a fusion protein with the HiBit tag can be quantified in cell lysates.
Lentiviral vectors, based on the Invitrogen™ pLenti6.2/V5 DEST backbone were constructed that places the HiBit tag upstream of WIZ and expressed the fusion protein from an HSVTK promotor.
To ensure moderate and consistent expression of the HiBit-WIZ fusion protein across all cells in the population, stable cell lines were constructed from cells harboring a single copy of the construct. Lentivirus packaged with the constructs were made using the ViraPower™kit from Invitrogen™. 293T cells from ATCC (Catalog number: CRL-3216), were infected with the virus at low multiplicity of infection and selected by 5 μg/mL blasticidin in culture media for 2 weeks.
The levels of HiBit-WIZ tagged fusion proteins in compound-treated cell lines were measured as follows:
On day 1, cells were diluted to 1.0×10^6 cells/ml in normal growth medium. 20 μL of cell suspension were plated in each well of a solid white 384-well plate. Plates were incubated overnight in a 37° C. and 5% CO2 humidified tissue culture incubator.
On day 2, serial dilutions of compounds were made in 384-well plates. Compound plates were set up with DMSO in columns 1, 2, 23, 24, and 10-point compound dilution series in column 3-12 and column 13-22. 10 mM stock solution of compound were placed into column 3 or 13 and a 1:5 serial dilution was carried out until there was a 10-point dilution series per compound. 50 nL of diluted compounds were transferred into the plated cells by Echo® (Labcyte) acoustic transfer. The highest concentration of compound was 25 μM. Plates were incubated overnight (about 18 hours) in a 37° C. and 5% CO2 humidified tissue culture incubator.
On day 3, plates were removed from the incubator and allowed to equilibrate at room temperature for 60 minutes. HiBit substrate (Nano-Glo® HiBit Lytic Detection System, Promega Catalogue number: N3050) was added as described by the manufacturers protocols. Plates were incubated at room temperature for 30 minutes and luminescence was read using an EnVision® reader (PerkinElmer®). Data was analyzed and visualized using the Spotfire® software package.
WIZ Amax reflects the DMSO-normalized, curve-fitted percentage of WIZ-HiBit remaining at 25 uM. It was calculated by normalizing DMSO controls to 100%, parametric curve fitting of the dose response data (10-point, 5-fold), followed by calculation of response at 25 uM using the fitted equation (nd=not determined).

T1 sequence (O95785 whole entry): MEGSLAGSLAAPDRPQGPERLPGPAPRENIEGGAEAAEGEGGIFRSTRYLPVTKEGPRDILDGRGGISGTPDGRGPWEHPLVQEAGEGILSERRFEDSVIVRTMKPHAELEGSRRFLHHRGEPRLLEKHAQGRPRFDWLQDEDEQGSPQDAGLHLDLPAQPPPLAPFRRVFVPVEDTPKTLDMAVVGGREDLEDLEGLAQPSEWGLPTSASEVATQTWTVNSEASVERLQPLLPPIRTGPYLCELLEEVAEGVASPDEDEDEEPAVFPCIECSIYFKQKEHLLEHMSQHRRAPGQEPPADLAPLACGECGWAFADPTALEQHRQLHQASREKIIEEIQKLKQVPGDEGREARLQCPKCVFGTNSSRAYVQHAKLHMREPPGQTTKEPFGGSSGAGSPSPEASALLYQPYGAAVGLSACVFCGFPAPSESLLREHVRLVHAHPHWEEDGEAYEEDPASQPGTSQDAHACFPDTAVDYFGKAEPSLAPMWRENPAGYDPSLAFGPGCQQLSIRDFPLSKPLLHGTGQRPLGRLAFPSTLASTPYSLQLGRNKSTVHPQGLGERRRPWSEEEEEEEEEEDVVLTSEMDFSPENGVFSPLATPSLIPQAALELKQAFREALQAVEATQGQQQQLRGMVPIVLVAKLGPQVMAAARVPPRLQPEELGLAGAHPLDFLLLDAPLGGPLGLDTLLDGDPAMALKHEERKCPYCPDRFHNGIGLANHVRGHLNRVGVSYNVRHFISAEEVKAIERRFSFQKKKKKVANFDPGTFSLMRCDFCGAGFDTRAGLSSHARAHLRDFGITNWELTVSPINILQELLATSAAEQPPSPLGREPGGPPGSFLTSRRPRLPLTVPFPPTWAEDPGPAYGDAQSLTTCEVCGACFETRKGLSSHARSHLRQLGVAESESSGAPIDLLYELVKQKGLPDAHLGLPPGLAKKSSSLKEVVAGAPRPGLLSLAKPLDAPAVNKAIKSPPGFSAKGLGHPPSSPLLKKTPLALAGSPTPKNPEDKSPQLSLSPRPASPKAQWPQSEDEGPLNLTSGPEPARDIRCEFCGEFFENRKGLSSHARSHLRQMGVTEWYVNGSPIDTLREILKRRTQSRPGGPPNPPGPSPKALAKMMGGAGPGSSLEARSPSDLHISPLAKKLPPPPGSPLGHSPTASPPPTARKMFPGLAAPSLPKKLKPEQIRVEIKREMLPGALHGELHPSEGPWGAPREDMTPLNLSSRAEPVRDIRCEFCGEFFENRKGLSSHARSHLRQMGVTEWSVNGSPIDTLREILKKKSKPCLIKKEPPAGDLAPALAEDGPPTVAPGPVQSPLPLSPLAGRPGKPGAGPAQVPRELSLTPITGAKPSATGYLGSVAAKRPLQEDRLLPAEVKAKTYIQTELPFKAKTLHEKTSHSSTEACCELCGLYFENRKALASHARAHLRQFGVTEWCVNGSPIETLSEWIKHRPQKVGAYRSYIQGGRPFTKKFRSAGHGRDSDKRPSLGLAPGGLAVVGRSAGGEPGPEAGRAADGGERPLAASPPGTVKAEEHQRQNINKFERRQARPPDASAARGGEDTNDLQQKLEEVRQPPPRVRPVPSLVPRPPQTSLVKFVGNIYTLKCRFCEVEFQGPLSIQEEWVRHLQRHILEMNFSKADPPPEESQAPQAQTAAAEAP
T1 sequence (Q96SW2 whole entry): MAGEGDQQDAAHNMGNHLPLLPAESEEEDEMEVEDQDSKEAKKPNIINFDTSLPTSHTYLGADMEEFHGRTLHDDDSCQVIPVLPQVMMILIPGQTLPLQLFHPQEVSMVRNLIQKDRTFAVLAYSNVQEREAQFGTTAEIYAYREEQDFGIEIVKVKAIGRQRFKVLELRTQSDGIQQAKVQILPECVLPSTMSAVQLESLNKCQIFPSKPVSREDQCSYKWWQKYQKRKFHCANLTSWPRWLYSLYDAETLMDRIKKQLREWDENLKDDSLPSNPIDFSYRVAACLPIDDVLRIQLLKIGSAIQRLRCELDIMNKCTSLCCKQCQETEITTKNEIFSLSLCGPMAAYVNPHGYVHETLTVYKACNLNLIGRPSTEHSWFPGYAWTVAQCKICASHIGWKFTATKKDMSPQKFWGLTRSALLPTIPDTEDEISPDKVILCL
T1 sequence (Q16531 whole entry partner): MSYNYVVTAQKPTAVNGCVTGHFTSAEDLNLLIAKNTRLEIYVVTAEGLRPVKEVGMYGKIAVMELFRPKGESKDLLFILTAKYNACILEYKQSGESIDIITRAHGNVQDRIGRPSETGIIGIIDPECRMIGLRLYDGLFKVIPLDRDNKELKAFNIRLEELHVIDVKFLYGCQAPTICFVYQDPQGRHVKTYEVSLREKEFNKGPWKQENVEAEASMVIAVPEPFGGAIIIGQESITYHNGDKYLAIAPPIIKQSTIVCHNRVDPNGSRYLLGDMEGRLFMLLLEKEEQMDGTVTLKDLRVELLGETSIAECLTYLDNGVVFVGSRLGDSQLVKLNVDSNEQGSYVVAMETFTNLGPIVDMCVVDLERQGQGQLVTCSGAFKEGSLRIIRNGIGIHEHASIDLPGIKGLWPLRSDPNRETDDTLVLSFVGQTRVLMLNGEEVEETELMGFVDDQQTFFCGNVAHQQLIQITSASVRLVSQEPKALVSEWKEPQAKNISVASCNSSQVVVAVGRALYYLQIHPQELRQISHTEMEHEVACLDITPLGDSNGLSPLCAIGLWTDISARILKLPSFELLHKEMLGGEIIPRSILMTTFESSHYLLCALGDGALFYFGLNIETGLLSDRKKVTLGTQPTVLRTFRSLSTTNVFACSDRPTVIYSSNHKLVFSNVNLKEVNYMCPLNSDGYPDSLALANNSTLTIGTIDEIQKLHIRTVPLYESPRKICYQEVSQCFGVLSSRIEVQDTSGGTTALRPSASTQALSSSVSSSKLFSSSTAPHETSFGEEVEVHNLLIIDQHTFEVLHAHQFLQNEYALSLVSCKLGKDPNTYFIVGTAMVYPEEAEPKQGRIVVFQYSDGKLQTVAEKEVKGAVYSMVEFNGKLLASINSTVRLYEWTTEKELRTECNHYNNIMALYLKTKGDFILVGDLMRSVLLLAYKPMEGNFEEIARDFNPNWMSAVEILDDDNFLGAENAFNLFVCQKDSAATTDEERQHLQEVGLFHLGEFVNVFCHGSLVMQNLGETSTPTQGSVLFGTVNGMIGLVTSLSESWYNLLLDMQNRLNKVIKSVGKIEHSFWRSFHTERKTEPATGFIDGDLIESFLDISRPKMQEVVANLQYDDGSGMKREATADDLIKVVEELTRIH

Dmax at 25 µM [%]	remaining activity at 25 µM [%]	DC50 [nM]	Structure (SMILES)	% degradation of WIZ (100-Amax) [%]	WIZ Amax [%]
92	8	33	O=C1CCN(c2noc3ccc(CC4CCN(Cc5cccnc5)CC4)cc23)C(=O)N1 [Example 4, 1-(5-((1-(pyridin-3-ylmethyl)piperidin-4-yl)methyl)benzo[d]isoxazol-3-yl)dihydropyrimidine-2,4(1H,3H)-dione]	–	–
88	12	7	Cc1c(CN2CCN(CC(C)C)[C@@H](C)C2)ccc2onc(N3CCC(=O)NC3=O)c12 [Example 128, (S)-1-(5-((4-isobutyl-3-methylpiperazin-1-yl)methyl)-4-methylbenzo[d]isoxazol-3-yl)dihydropyrimidine-2,4(1H,3H)-dione]	–	–
90	10	26	O=C1CCN(c2noc3ccc(CN4CCN(C5CCOCC5)CC4)cc23)C(=O)N1 [Example 81, 1-(5-((4-(tetrahydro-2H-pyran-4-yl)piperazin-1-yl)methyl)benzo[d]isoxazol-3-yl)dihydropyrimidine-2,4(1H,3H)-dione]	–	–
87	13	578	COC[C@H]1CN(Cc2ccc3onc(N4CCC(=O)NC4=O)c3c2)CCN1C [Example 117, (R)-1-(5-((3-(methoxymethyl)-4-methylpiperazin-1-yl)methyl)benzo[d]isoxazol-3-yl)dihydropyrimidine-2,4(1H,3H)-dione]	–	–
84	16	28	CN1CCCN(Cc2ccc3onc(N4CCC(=O)NC4=O)c3c2)CC1 [Example 63, 1-(5-((4-methyl-1,4-diazepan-1-yl)methyl)benzo[d]isoxazol-3-yl)dihydropyrimidine-2,4(1H,3H)-dione]	–	–
77	23	240	CN1CCCC(Cc2ccc3onc(N4CCC(=O)NC4=O)c3c2)C1 (stereo not drawn) [Example 45, 1-(5-((1-methylpiperidin-3-yl)methyl)benzo[d]isoxazol-3-yl)dihydropyrimidine-2,4(1H,3H)-dione]	–	–
81	19	50	O=C1CCN(c2noc3ccc(CN4C[C@H]5C[C@@H]4CN5CC4CCOCC4)cc23)C(=O)N1 [Example 98, 1-(5-(((1R,4R)-5-((tetrahydro-2H-pyran-4-yl)methyl)-2,5-diazabicyclo[2.2.1]heptan-2-yl)methyl)benzo[d]isoxazol-3-yl)dihydropyrimidine-2,4(1H,3H)-dione]	–	–
86	14	9	Cc1c(CN2CCN(C)[C@@H](C)C2)ccc2onc(N3CCC(=O)NC3=O)c12 [Example 129, (S)-1-(5-((3,4-dimethylpiperazin-1-yl)methyl)-4-methylbenzo[d]isoxazol-3-yl)dihydropyrimidine-2,4(1H,3H)-dione]	–	–
76	24	437	C[C@@H]1CN(S(=O)(=O)N2CCCC2)CCN1Cc1ccc2onc(N3CCC(=O)NC3=O)c2c1 [Example 74, (R)-1-(5-((2-methyl-4-(pyrrolidin-1-ylsulfonyl)piperazin-1-yl)methyl)benzo[d]isoxazol-3-yl)dihydropyrimidine-2,4(1H,3H)-dione]	–	–
73	27	355	C[C@@H]1CN(CC2CCOCC2)C[C@H](C)N1Cc1ccc2onc(N3CCC(=O)NC3=O)c2c1 [Example 109, 1-(5-(((2R,6S)-2,6-dimethyl-4-((tetrahydro-2H-pyran-4-yl)methyl)piperazin-1-yl)methyl)benzo[d]isoxazol-3-yl)dihydropyrimidine-2,4(1H,3H)-dione]	–	–
89	11	39	O=C1CCN(c2noc3ccc(CC4CCN(CC(F)(F)F)CC4)cc23)C(=O)N1 [Example 13, 1-(5-((1-(2,2,2-trifluoroethyl)piperidin-4-yl)methyl)benzo[d]isoxazol-3-yl)dihydropyrimidine-2,4(1H,3H)-dione]	–	–
86	14	317	O=C1CCN(c2noc3ccc(CN4CC5CCC4CN5CC4CCOCC4)cc23)C(=O)N1 (single isomer, unassigned) [Example 121, 1-(5-((5-((tetrahydro-2H-pyran-4-yl)methyl)-2,5-diazabicyclo[2.2.2]octan-2-yl)methyl)benzo[d]isoxazol-3-yl)dihydropyrimidine-2,4(1H,3H)-dione]	–	–
92	8	16	CC(C)N1CCN(Cc2ccc3onc(N4CCC(=O)NC4=O)c3c2)CC1 [Example 79, 1-(5-((4-isopropylpiperazin-1-yl)methyl)benzo[d]isoxazol-3-yl)dihydropyrimidine-2,4(1H,3H)-dione]	–	–
82	18	34	C[C@@H]1CN(S(C)(=O)=O)CCN1Cc1ccc2onc(N3CCC(=O)NC3=O)c2c1 [Example 71, (R)-1-(5-((2-methyl-4-(methylsulfonyl)piperazin-1-yl)methyl)benzo[d]isoxazol-3-yl)dihydropyrimidine-2,4(1H,3H)-dione]	–	–
91	9	16	CCN1CCC(Cc2ccc3onc(N4CCC(=O)NC4=O)c3c2)CC1 [Example 8, 1-(5-((1-ethylpiperidin-4-yl)methyl)benzo[d]isoxazol-3-yl)dihydropyrimidine-2,4(1H,3H)-dione]	–	–
78	22	300	C[C@@H]1CN(CC(=O)N2CCCCC2)CCN1Cc1ccc2onc(N3CCC(=O)NC3=O)c2c1 [Example 70, (R)-1-(5-((2-methyl-4-(2-oxo-2-(piperidin-1-yl)ethyl)piperazin-1-yl)methyl)benzo[d]isoxazol-3-yl)dihydropyrimidine-2,4(1H,3H)-dione]	–	–
92	8	1.2	O=C1CCN(c2noc3ccc(CC4CCN(CC5CCC(F)(F)CC5)CC4)cc23)C(=O)N1 [Example 2, 1-(5-((1-((4,4-difluorocyclohexyl)methyl)piperidin-4-yl)methyl)benzo[d]isoxazol-3-yl)dihydropyrimidine-2,4(1H,3H)-dione]	–	–
86	14	109	C[C@H]1CN(Cc2ccc3onc(N4CCC(=O)NC4=O)c3c2)[C@@H](C)CN1C [Example 106, 1-(5-(((2S,5S)-2,4,5-trimethylpiperazin-1-yl)methyl)benzo[d]isoxazol-3-yl)dihydropyrimidine-2,4(1H,3H)-dione]	–	–

Structure (SMILES)	Dmax at 25 µM [%]	remaining activity at 25 µM [%]	DC50 [nM]	% degradation of WIZ (100-Amax) [%]	WIZ Amax [%]
O=C1CCN(c2noc3ccc(CN4[C@@H]5CC[C@H]4CNC5)cc23)C(=O)N1 [Example 102, 1-(5-(((1R,5S)-3,8-diazabicyclo[3.2.1]octan-8-yl)methyl)benzo[d]isoxazol-3-yl)dihydropyrimidine-2,4(1H,3H)-dione]	80	20	462	–	–
O=C1CCN(c2noc3ccc(CC4C[C@H]5CC[C@@H](C4)N5)cc23)C(=O)N1 (stereo partly drawn) [Example 56, 1-(5-(((1R,5S)-8-azabicyclo[3.2.1]octan-3-yl)methyl)benzo[d]isoxazol-3-yl)dihydropyrimidine-2,4(1H,3H)-dione]	–	–	251	45	55
CC(C)(C)OC(=O)N1[C@@H]2CC[C@H]1CN(Cc1ccc3onc(N4CCC(=O)NC4=O)c3c1)C2 [Example 99, tert-butyl (1R,5S)-3-((3-(2,4-dioxotetrahydropyrimidin-1(2H)-yl)benzo[d]isoxazol-5-yl)methyl)-3,8-diazabicyclo[3.2.1]octane-8-carboxylate]	74	26	450	–	–
CC(C)(C)OC(=O)N1[C@@H]2CC[C@H]1CC(Cc1ccc3onc(N4CCC(=O)NC4=O)c3c1)C2 (single isomer, unassigned) [Example 54]	–	–	196	92	8

Source: patent publication US20250276964A1 (Novartis AG, priority 2021, published 2025)
